# Measurements reported in patent US11674963B2, “GPCRs in cancer-associated fibroblasts” (The Regents of the University of California, priority 2017, dated 2023).
# Where a SMILES comes first, the peptide text is derived from it. The star is where a group is joined. Cbz = O=C(OCc1ccccc1)*
# Key:
# Assay type in all cases: cell-based, human
# PSCs [1] = test: Real-time qPCR of GPR68 expression in PSCs incubated with TNFα and NF-κB inhibitors; conditions: 6 h, TNFα 50 ng/mL; MG-132 20 μM, IKK2 inhibitor VI 5 μM, JSH-23 20 μM, CAY10512 0.3 μM
# Excerpt: (§1) FIGS. 3A-3D show co-culture of PDAC cells and PSCs increases expression by PSCs of GPR68 and fibrotic genes, effects mediated by TNFα and TGFβ, respectively. […] Relative expression was compared by 2^(ΔCt control-ΔCtco-culture). Data are mean±SEM, n=3, unpaired t test, *p<0.05, **p<0.01, ***p<0.001, ****p<0.0001. […] Relative expression was compared by 2^(ΔCt control-ΔCtTGFβ1 or ΔCtTNFα). Data are mean±SEM, n=3, unpaired t test, *p<0.05, **p<0.01, ****p<0.0001. […] Relative expression was compared to control by 2(ΔCt control-ΔCtco-culture). Data are mean±SEM, n=3, unpaired t test, *p<0.05. […] Relative expression was normalized to control by 2(ΔCt^control-ΔCtTGFβ1 or ^ΔCtTNFα) n=3, data are mean±SEM, unpaired t test, *p<0.05, **p<0.01, ****p<0.0001.
# (§2) RNA isolated using an RNeasy kit with DNase treatment (Qiagen) and converted to cDNA using an iScript cDNA Synthesis Kit (Bio-Rad, Irvine, Calif., USA). cDNA was mixed with gene-specific primers and SYBR green reagent (Quanta Biosciences, Gaithersburg, Md., USA) for PCR amplification using a DNA Engine Opticon 2 system (MJ Research, Waltham, Mass., USA). Primers were designed using Primer Premier 6 software (PREMIER Biosoft, Palo Alto, Calif., USA). Gene expression was quantified as ΔCt using 18S rRNA as the reference gene. Expression of different cells was compared as fold-change=2(AACt). RNA isolated using an RNeasy kit with DNase treatment (Qiagen) and converted to cDNA using an iScript cDNA Synthesis Kit (Bio-Rad, Irvine, Calif., USA). cDNA was mixed with gene-specific primers and SYBR green reagent (Quanta Biosciences, Gaithersburg, Md., USA) for PCR amplification using a DNA Engine Opticon 2 system (MJ Research, Waltham, Mass., USA). Primers were designed using Primer Premier 6 software (PREMIER Biosoft, Palo Alto, Calif., USA). Gene expression was quantified as ΔCt using 18S rRNA as the reference gene. Expression of different cells was compared as fold-change=2(AACt). […] Gene expression was quantified as ΔCt using 18S rRNA as the reference gene. […]
# PSCs [2] = test: Real-time qPCR of gene expression in PSCs incubated with TGFβ1 or TNFα; conditions: PSCs incubated 48 h with 50 ng/mL
# Excerpt: as §1
# RNA isolated using an RNeasy kit with DNase treatment (Qiagen) and converted to cDNA using an iScript cDNA Synthesis Kit (Bio-Rad, Irvine, Calif., USA). cDNA was mixed with gene-specific primers and SYBR green reagent (Quanta Biosciences, Gaithersburg, Md., USA) for PCR amplification using a DNA Engine Opticon 2 system (MJ Research, Waltham, Mass., USA). Primers were designed using Primer Premier 6 software (PREMIER Biosoft, Palo Alto, Calif., USA). Gene expression was quantified as ΔCt using 18S rRNA as the reference gene. Expression of different cells was compared as fold-change=2(AACt). RNA isolated using an RNeasy kit with DNase treatment (Qiagen) and converted to cDNA using an iScript cDNA Synthesis Kit (Bio-Rad, Irvine, Calif., USA). cDNA was mixed with gene-specific primers and SYBR green reagent (Quanta Biosciences, Gaithersburg, Md., USA) for PCR amplification using a DNA Engine Opticon 2 system (MJ Research, Waltham, Mass., USA). Primers were designed using Primer Premier 6 software (PREMIER Biosoft, Palo Alto, Calif., USA). Gene expression was quantified as ΔCt using 18S rRNA as the reference gene. Expression of different cells was compared as fold-change=2(AACt). The primer sequences are: 18S-F: 5′-[…]-3′ (SEQ ID NO: 1); 18S-R: 5′-[…]-3′ (SEQ ID NO: 2); GPR68-F: 5′-CCTTCCGCTTCCACCAGTT-3′ (SEQ ID NO: 3); GPR68-R: 5′-TCGTCCTCGATGACCTCCT-3′ (SEQ ID NO: 4); ACTA2-F: 5′-[…]-3′ (SEQ ID NO: 5); ACTA2-R: 5′-[…]-3′ (SEQ ID NO: 6); COL1A1-F: 5′-[…]-3′ (SEQ ID NO: 7); COL1A1-R: 5′-[…]-3′ (SEQ ID NO: 8); IL6-F: 5′-[…]-3′ (SEQ ID NO: 9); IL6-R: 5′-[…]-3′ (SEQ ID NO: 10); COL3A1-F: 5′-GCTGGCTACTTCTCGCTCT-3′ (SEQ ID NO: 11); COL3A1-R: 5′-[…]-3′ (SEQ ID NO: 12); POSTN-F: 5′-[…]-3′ (SEQ ID NO: 13); POSTN-R: 5′-[…]-3′ (SEQ ID NO: 14); CTGF-F: 5′-[…]-3′ (SEQ ID NO: 15); CTGF-R: 5′-GCTACAGGCAGGTCAGTGA-3′ (SEQ ID NO: 16); PDGFRB-F: 5′-[…]-3′ (SEQ ID NO: 17); PDGFRB-R: 5′-[…]-3′ (SEQ ID NO: 18). Gene expression was quantified as ΔCt using 18S rRNA as the reference gene. We compared expression of different cells as fold-change=2(AACt).
# CAFs = test: Real-time qPCR of GPR68 and IL-6 expression in CAFs at pH 6.8 with PKA or CREB inhibitors; conditions: CAFs cultured 6 h in pH 6.8 media, normalized to pH 7.4
# Experimental: FIG. 6A show CAFs transfected with control or GPR68 siRNA were cultured in pH media for 30 min, treated with 1 mM IBMX for 10 min and cellular cAMP was measured by the HitHunter cAMP assay. Data are mean±SEM, n=3, two-way ANOVA, *p<0.05, ****p<0.0001. […] Results were normalized to those at pH 7.4. n=3, data are mean±SEM, unpaired t test, **p<0.01, ***p<0.001, ns=non-significant. […] Activation of CREB is shown as p-CREB/CREB. Data are mean±SEM, n=3, unpaired t test, *p<0.05. […] Results are normalized to those at pH 7.4. Data are mean±SEM, n=3, unpaired t test, **p<0.01, ***p<0.001, ns=non-significant.
# as §2
# The pH media are DMEM containing 5 g/L glucose, 20 mM HEPES, 20 mM NaHCO3, 2% FBS, 100 I.U./ml penicillin and 100 μg/ml streptomycin, pH adjusted by HCl or NaOH at room temperature. […] Cell viability were assessed by a CEllTiter-Glo Luminescent assay (Promega) and detected using a DXT 800 multimode plate reader (Beckman Coulter, Carlsbad, Calif., USA).
compound,measurement,setting,value
Cc1ccc(NCCCc2ccccc2)c(N)c1 [JSH-23],TNFα-promoted increase in GPR68 expression in PSCs,PSCs [1],reduced
CC(C)C[C@@H](C=O)NC(=O)[C@H](CC(C)C)NC(=O)[C@H](CC(C)C)NC(=O)OCc1ccccc1 [MG132] (Cbz-Leu-Leu-Leu-aldehyde),TNFα-promoted increase in GPR68 expression in PSCs,PSCs [1],reduced
"TGFβ1: Transforming growth factor beta 1, a driver of PSC activation",ACTA2 expression,PSCs [2],increased expression
same,COL1A1 expression,PSCs [2],increased expression
same,GPR68 expression,PSCs [2]; result in words,did not change
NC(=O)Nc1sc(-c2ccccc2)cc1C(N)=O [IKK2 inhibitor VI],TNFα-promoted increase in GPR68 expression in PSCs,PSCs [1],reduced
O=S(=O)(NCCNC/C=C/c1ccc(Br)cc1)c1cccc2cnccc12 [H89],GPR68 expression in CAFs,CAFs,did not alter
same,pH 6.8-promoted increase in IL-6 expression by CAFs,CAFs,blocked
O=C(Nc1ccc(Cl)cc1)c1cc2ccccc2cc1O [naphthol AS-E],GPR68 expression in CAFs,CAFs,without altering
same,pH 6.8-promoted increase in IL-6 expression by CAFs,CAFs,blunted
TNFα,ACTA2 expression,PSCs [2],not higher
same,COL1A1 expression,PSCs [2],not higher
same,expression of GPR68,PSCs [2]; higher vs control,18 fold
same,expression of IL-6,PSCs [2]; higher vs control,31 fold
